For orientation: IC50 means the point on the concentration scale where inhibition reaches its midpoint.

Structures are written as SMILES. The source made the active and inactive calls. No cut-off for these calls is given here.

The record followed here is ChEMBL document CHEMBL4411285, “Design, synthesis, in silico pharmacokinetics prediction and biological evaluation of 1,4-dihydroindeno[1,2-c]pyrazole chalcone as EGFR /Akt pathway inhibitors” (Eur J Med Chem, 2019).

Assay [1] concerns SK-BR-3. Kind of assay: Cytotoxicity against human SKBR3 cells after 24 hrs by MTT assay. Format: functional, cell-based. As to conditions: SK-BR-3, 24 h. Background: Tetrazolium assays rely on reduction of a dye to a coloured formazan, in cell work by metabolically active cells.
Assay [2] relates to HEK-293T. Kind of assay: Cytotoxicity against human HEK293T cells after 24 hrs by MTT assay. Format: cell-based.
Assay [3] deals with MDA-MB-231. Kind of assay: Cytotoxicity against human MDA-MB-231 cells after 24 hrs by MTT assay. The class given is functional, cell-based. As to conditions: MDA-MB-231, 24 h.
Assay [4] concerns A549. Kind of assay: Cytotoxicity against human A549 cells after 24 hrs by MTT assay. As to conditions: A549, 24 h. The class given is functional, cell-based.
Assay [5] deals with MCF7. Kind of assay: Cytotoxicity against human MCF7 cells after 24 hrs by MTT assay. The class given is functional, cell-based. As to conditions: MCF7, 24 h.
In assay [6] the test system is HCT-116. Kind of assay: Cytotoxicity against human HCT116 cells after 24 hrs by MTT assay. The class given is functional, cell-based. As to conditions: HCT-116, 24 h.
Assay [7] deals with A549. In words: Cell cycle arrest in human A549 cells assessed as accumulation of cells at S phase at 10 uM after 24 hrs by propidium iodide staining-based flow cytometric analysis (reference value: 6.22%). Format: functional. (In general: In flow cytometry, cells or beads pass a laser one at a time.)
Assay [8] concerns A549. Kind of assay: Downregulation of AKT expression in human A549 cells at 10 uM after 24 hrs by Hoechst staining-based immunocytochemistry. The class given is functional, cell-based.
Assay [9] concerns A549. In words: Induction of apoptosis in human A549 cells assessed as decrease in Bcl-2 expression at 10 uM after 24 hrs by Western blot analysis. The class given is functional, cell-based.
Assay [10] has as its system A549. Kind of assay: Downregulation of EGFR expression in human A549 cells at 10 uM after 24 hrs by Hoechst staining-based fluorescence assay. Format: functional, cell-based.
Assay [11] concerns A549. Kind of assay: Cell cycle arrest in human A549 cells assessed as accumulation of cells at sub G1 phase at 10 uM after 24 hrs by propidium iodide staining-based flow cytometric analysis (reference value: 0.52%). The class given is functional.
Assay [12] relates to A549. Kind of assay: Cell cycle arrest in human A549 cells assessed as accumulation of cells at G2/M phase at 10 uM after 24 hrs by propidium iodide staining-based flow cytometric analysis (reference value: 21.7%). Format: functional.
Assay [13] deals with A549. Kind of assay: Induction of apoptosis in human A549 cells assessed as increase in BAX expression at 10 uM after 24 hrs by Western blot analysis. The class given is functional, cell-based. Background: A western blot detects proteins with antibodies after separation by electrophoresis.
The test system of assay [14] is A549. In words: Cell cycle arrest in human A549 cells assessed as accumulation of cells at G0/G1 phase at 10 uM after 24 hrs by propidium iodide staining-based flow cytometric analysis (reference value: 71.1%). Format: functional.
Assay [15] relates to A549. In words: Induction of apoptosis in human A549 cells assessed as increase in TP53 expression at 10 uM after 24 hrs by Western blot analysis. The class given is functional, cell-based.
Assay [16] has as its target Tubulin (Homo sapiens) (UniProt P68371+Q9H4B7+P0DPH7+P68366+Q13509+Q71U36+P04350+Q3ZCM7+P07437+P68363+Q9BQE3+Q6PEY2+Q13885+Q9BVA1+Q9BUF5). Kind of assay: Inhibition of tubulin network in human A549 cells at 10 uM after 24 hrs by Hoechst 33342 staining-based confocal microscopic analysis. The class given is cell-based.
For assay [17], the system named is A549. In words: Inhibition of 3-D spheroids cell growth in human A549 cells at 10 uM after 25 days by crystal violet staining-based immunocytochemistry. The class given is functional.

For the compound `COc1ccc(C(=O)/C=C/c2[nH]nc3c2Cc2ccccc2-3)cc1OC`, the IC50 in assay [1] came out at 11.4 µM; in assay [2], 38 µM; in assay [3], 6.82 µM; in [4], 13.4 µM; in [5], 10.1 µM; in assay [6], 20.5 µM.
`COc1ccc2c(c1)-c1n[nH]c(/C=C/C(=O)c3ccc4c(c3)OCO4)c1C2`: the IC50 in [1] is 12.5 µM; in assay [2] it was 54 µM; in assay [3], 9.31 µM; in assay [4], 12.4 µM; in assay [5], 9.99 µM; in assay [6], 13.7 µM.
`COc1ccc(C(=O)/C=C/c2[nH]nc3c2Cc2ccc(OC)cc2-3)cc1`: the IC50 in assay [1] stood at 10.2 µM; in [2] it was 45 µM; in assay [3], 6.21 µM; in assay [4], 13.3 µM; in assay [5], 9.18 µM; in assay [6] it was 13.2 µM.
`COc1cc(C(=O)/C=C/c2[nH]nc3c2Cc2ccccc2-3)cc(OC)c1OC`: the IC50 in [1] was 8.64 µM; in assay [2] it was 25 µM; in assay [3], 5.52 µM; in assay [4], 10.9 µM; in assay [5], 8.49 µM; in assay [6] it was 12.8 µM.
As for `C#Cc1cccc(Nc2ncnc3cc(OCCOC)c(OCCOC)cc23)c1` [ERLOTINIB], the IC50 in assay [1] was 3.98 µM; in assay [2], 73 µM; in [3], 0.05 µM; in assay [5] it was 12.4 µM; in assay [6], 7.31 µM. Also, the Activity in assay [7] turned out to be 7.72%; in assay [11], 1.71%; in assay [12] it was 26%; in assay [14] it was 64.1%. The result in assay [8], in [9], in assay [10], in assay [13] and in assay [15] was Active.
For `COc1ccc2c(c1)-c1n[nH]c(/C=C/C(=O)c3ccc(OC)c(OC)c3)c1C2`, the IC50 in assay [1] came to 9.22 µM; in assay [2], 33 µM; in [3], 4.48 µM; in assay [4], 10.4 µM; in [5], 7.99 µM; in [6] it was 12.2 µM.
For the compound `COc1cc2c(cc1OC)-c1n[nH]c(/C=C/C(=O)c3cc(OC)c(OC)c(OC)c3)c1C2`, the IC50 in assay [1] stood at 4.97 µM; in [2], 29 µM; in assay [3], 6.03 µM; in assay [4], 4.33 µM; in assay [5] it was 6.83 µM; in assay [6], 5.9 µM. In addition, the Activity in assay [7] was 9.36%; in assay [11] it was 5.16%; in [12], 33.7%; in assay [14], 51.1%. Moreover, the result in assay [8], in [9], in assay [10], in assay [13] and in [15] was Active. Moreover, the inhibition entry in assay [16] is “Active”. For the same compound, the “growth inhibition (GI)” value in assay [17] is “Active”.
As to `COc1cc2c(cc1OC)-c1n[nH]c(/C=C/C(=O)c3ccc(N)cc3)c1C2`, the IC50 worked out at 9.23 µM in assay [1]; 20 µM in assay [2]; 6.4 µM in [3]; 9.73 µM in assay [4]; 7.5 µM in assay [5]; 8.34 µM in [6].
For the compound `COc1cc2c(cc1OC)-c1n[nH]c(/C=C/C(=O)c3ccc4c(c3)OCO4)c1C2`, the IC50 was 8.12 µM in assay [1]; 18 µM in assay [2]; 5.28 µM in [3]; 11.9 µM in [4]; 6.9 µM in assay [5]; 11.6 µM in assay [6].
For the compound `COc1ccc(C(=O)/C=C/c2[nH]nc3c2Cc2ccccc2-3)cc1`, the IC50 in [1] came to 14.7 µM; in assay [2] it was 21 µM; in assay [3], 10.1 µM; in assay [4], 14.3 µM; in assay [5] it was 11.5 µM; in [6] it was 10.8 µM.
Regarding `Nc1ccc(C(=O)/C=C/c2[nH]nc3c2Cc2ccccc2-3)cc1`, the IC50 in [1] came to 7.47 µM; in [2], 35 µM; in assay [3] it was 5.66 µM; in assay [4], 11.5 µM; in assay [5] it was 8.35 µM; in [6] it was 14.9 µM.
Take `O=C(/C=C/c1[nH]nc2c1Cc1ccccc1-2)c1ccc2c(c1)OCO2`: the IC50 in assay [1] worked out at 17.3 µM; in assay [2] it was 17 µM; in assay [3] it was 14.5 µM; in assay [4], 16 µM; in assay [5], 12.4 µM; in assay [6], 13.8 µM.
For the compound `COc1ccc2c(c1)-c1n[nH]c(/C=C/C(=O)c3ccc(N)cc3)c1C2`, the IC50 in [1] is 12.5 µM; in assay [2] it was 19 µM; in assay [3] it was 11.9 µM; in assay [4] it was 11.3 µM; in [5], 11.2 µM; in [6], 19.8 µM.
In the case of `COc1ccc2c(c1)-c1n[nH]c(/C=C/C(=O)c3cc(OC)c(OC)c(OC)c3)c1C2`, the IC50 in assay [1] is 4.79 µM; in [2] it was 32 µM; in assay [3], 5.89 µM; in [4] it was 3.82 µM; in [5] it was 6.55 µM; in assay [6] it was 6.85 µM. For the same compound, the Activity in assay [7] was 7.99%; in assay [11], 2.36%; in assay [12], 29.6%; in assay [14], 59.5%. In addition, the result in assay [8], in assay [9], in [10], in assay [13] and in [15] was Active. Also, the inhibition entry in assay [16] was “Active”. Besides, the “growth inhibition (GI)” value in [17] was “Active”.
As for `COc1ccc(C(=O)/C=C/c2[nH]nc3c2Cc2cc(OC)c(OC)cc2-3)cc1`, the IC50 in [1] is 8.52 µM; in assay [2], 23 µM; in assay [3], 6.54 µM; in assay [4], 9.88 µM; in [5] it was 6.99 µM; in assay [6], 11.6 µM.
As for `COc1ccc(C(=O)/C=C/c2[nH]nc3c2Cc2cc(OC)c(OC)cc2-3)cc1OC`, the IC50 in assay [1] is 5.11 µM; in assay [2] it was 46 µM; in assay [3], 3.82 µM; in assay [4], 5.21 µM; in assay [5] it was 6.94 µM; in [6], 6.66 µM. Besides, the Activity in assay [7] is given as 7.62%; in [11], 5.27%; in [12] it was 40.6%; in assay [14], 45.9%. Further, the outcome in assay [8], in assay [9], in assay [10], in [13] and in assay [15] was Active. For the same compound, the inhibition result in assay [16] is “Active”. For the same compound, the “growth inhibition (GI)” value in assay [17] is “Active”.
